Results on one compound are retold here after patent US8217071B2, “Use of inhibitors of the degradation of p27, in particular Argyrin and derivatives thereof, for the treatment of proliferative diseases” (Helmholtz Zentrum für Infektionsforschung GmbH, priority 2007, dated 2012).

SMILES strings stand for the structures. Values after ≈ are worked out from the molar mass of the structure shown. Numbered stars: 1 amine (or outer) side, 2 acyl side, 3 side chain; on linkers, the order of the positions; unused ones are H or OH. Square brackets hold non-standard residues; d marks the D form. Peptide text beside a SMILES is read from it. dAla(ψthiazole) = C[C@@H](N[*:1])c1nc(C(=O)[*:2])cs1; Trp(4-OMe) = COc1cccc2[nH]cc(C[C@H](N)C(=O)O)c12; Dha = C=C(N)C(=O)O; Sar = CNCC(=O)O

One experiment deals with SW-480 (colon cancer). The experiment in a line: MIC (visual), serial dilution, SW-480. In kind it is cell-based, human. As to conditions: minimal concentration of a serial dilution exhibiting a visual effect. From the text:
The following table summarizes the effects of argyrin-derivatives A to H on two cancer cell lines, H15 (cervix carcinoma) and SW-480 (colon cancer). In order to test the efficacy, a p27-GFP-clone was used.

Experiment [1] concerns the target T1, purified human 20S proteasome (Homo sapiens, UniProt P28072+P28074+Q99436).
T1 construct: using erythrocyte-derived 20S proteasome (Biomol International, #LP PW8720); purchased Biomol International #LP PW8720; host or cells: human erythrocytes
The experiment is described as follows: Proteasome assay with purified 20S proteasome, fluorogenic peptide substrates. In kind it is biochemical. As to conditions: purified human erythrocyte derived 20S proteasome. On the procedure:
The expression levels of p27^kip1 were determined at the indicated timepoints by western blotting and normalized against actin expression which was used as an internal control.
Proteasome assays with purified 20S proteasome were performed as previously described (Lightcap, E. S. et al. Proteasome inhibition measurements: clinical application. Clin Chem 46, 673-83 (2000)) using erythrocyte-derived 20S proteasome (Biomol International, #LP PW8720) and fluorometric substrates Succ-LLVY-AMC, BZ-VGR-AMC and Z-Lle-AMC (Biomol International, LP PW9905) as probes according to the manufacturers instructions. Proteasome extraction from cells and tumour sections was done as previously described (Crawford, L. J. et al. Comparative selectivity and specificity of the proteasome inhibitors BzLLLCOCHO, PS-341, and MG-132. Cancer Res 66, 6379-86 (2006)). Briefly cells (MEF or MCF-7) or tissue sample homogenate (tumour sections) were re-suspended in 1 mL ATP/DTT lysis buffer (10 mmol/L Tris-HCl (pH 7.8), 5 mmol/L ATP, 0.5 mmol/L DTT, 5 mmol/L MgCl2), and incubated on ice for 10 minutes, followed by sonication for 15 seconds. […] Protein concentration of the samples was measured using a coomassie protein assay (Pierce, Rockford, Ill.).

In another experiment the test system is HeLa cells. The experiment in a line: Apoptosis in HeLa cells with p27^kip1 specific siRNA. The experiment is classed as cell-based, human. As to conditions: 24 or 48 hours. From the text:
Next the inventors tested whether the stabilization of p27 was indeed required for the apoptosis inducing function of Argyrin A or was merely a consequence of proteasome inhibition. For this the inventors treated immortalized mouse embryonic fibroblasts from p27^kip1 wildtype or knockout mice with Argyrin A or the proteasome inhibitor bortezomib and assayed cell cycle distribution and apoptosis by flow cytometry. […] These differences in sensitivity in response to Argyrin A treatment were not due to differences in the accumulation of other proteasomal substrates in p27 wildtype and knockout cells as p53 and p21 levels increased in both cell lines in response to Argyrin A (FIG. 6B). To extend this observation to human cancer cells the inventors reduced the levels of p27^kip1 in HeLa cells using p27^kip1 specific siRNA.
The results shown are the average numbers for six independent experiments. b+d) Wildtype (b) and p27 knockout (d) MEF were treated with Argyrin A or transfected with siRNAs specific for the β1, β2 or β5 subunit of the proteasome for 24 hours. The graphs show the remaining catalytic activity of the different proteasome subunits after Argyrin A or siRNA treatment compared to an untreated control (n=3). […]

The test system of another experiment is 20S proteasome. The experiment is described as follows: 20S proteasome activity in peripheral blood cells after i.p. injection. In kind it is in vivo, mouse. As to conditions: peripheral blood lymphocytes. On the procedure:
The inventors therefore tested if Argyrin A induced p27^kip1 stabilization would be beneficial in the treatment of human colon cancer cell derived tumour xenografts. To analyze this the inventors first tested if Argyrin A was active after application in vivo. After intraperitoneal injection of Argyrin A, 20S proteasome was isolated from peripheral blood lymphocytes at different time points after injection. […] Based on this finding the inventors treated tumour bearing mice with 0.15 mg Argyrin per kilogram bodyweight injected intraperitoneally every three days.
At the indicated timepoints 20S proteasome was isolated from peripheral blood cells and the activity of the different proteasome subunits was determined as described (FIG. 1d). b) SW480 colon carcinoma cell lines mixed with matrigel were injected under the skin of nu/nu mice to establish xenotransplant tumours. Treatment with Argyrin A or bortezomib was started when these tumours reached a volume of 200 mm^3. […] The activity of the respective proteasome subunits was determined as described previously (FIG. 1d). e) Determination of the number of p27^kip1 positive cells in tumour tissue after Argyrin A treatment. […] At least 200 cells were counted on five independent sections to quantitate the number of apoptotic cells. […]
Proteasome assays using proteasome purified from cells or tissues were carried out in a 100 μL reaction volume containing 20 μg proteasome extract, 50 mmol/L EDTA and 60 μmol/L fluorogenic substrate (chymotrypsin-like (CT-L), trypsin-like (T-L) or caspase-like (C-L)) in ATP/DTT lysis buffer at 37° C. […] The rate of cleavage of fluorogenic peptide substrates was determined by monitoring the fluorescence of released amonomethylcoumarin using a Victor 1420 Multilabel counter (Wallac) at an excitation wavelength of 395 nm and emission wavelength of 460 nm over a period of 60 min.

Consider `C=C1NC(=O)[C@@H](C)NC(=O)CNC(=O)[C@H](Cc2c[nH]c3cccc(OC)c23)NC(=O)[C@H](Cc2c[nH]c3ccccc23)NC(=O)c2csc(n2)[C@@H](C)NC(=O)CN(C)C1=O` [Argyrin A] (cyclo(W[Trp(4-OMe)]G[dA][Dha][Sar][dAla(ψthiazole)])), for which the “MIC (visual) SW-480” value with SW-480 (colon cancer) came to 4 µg/mL (≈ 4.85 µM). In addition, the “caspase, trypsin and chymotrypsin like proteasome activities” value in experiment [1] is “dose dependent inhibition”. Also, the “apoptosis inducing function in HeLa cells treated with p27siRNA” value with HeLa cells was “completely blocked”. For the same compound, in the experiment on 20S proteasome (i.p.), the “time at which all activities returned to base-line levels post injection” value was 72 h and the “time of maximum inhibitory activity post injection” value is listed as 48 h. The “proteasome activities after i.p. application” value in the experiment on 20S proteasome (mice) is “inhibited all proteasome activities”.
